Ends that are not written are not given here.
Assays:
[1] = test system: TRAP positive osteoclasts in mouse bone marrow cell culture; assay: Osteoclast formation (TRAP staining) in mouse bone marrow cell culture; format: cell-based
Protocol: Bone marrow was harvested by flushing the femur and tibia bones of CDF-1 mice with PBS followed by washing twice with PBS and resuspending in DMEM with 10% FBS (1-2×10^6 cells/m, 10 ml). Cells were then seeded in 24-well plates (2×10^6 cells/well/ml) and were cultured for 6-9 days in DMEM media supplemented with the cytokines: 10 ng/ml recombinant mouse M-CSF-1 and 100 ng/ml recombinant mouse RANK ligand to induce osteoclast development. Culture medium was replaced every two days till day 5 and there was no medium replacing between day 6 and day 9. […] On days 5, 7, and 9, cell viability and number of TRAP positive cells were determined using the Acid Phosphatase Leukocyte staining kit. The bone marrow cells were washed with PBS and stained according to the protocol recommended by the vendor. TRAP positive cells and osteoclasts were counted using an inverted microscope.
Differentiation to osteoclasts then occurs in the presence of osteoclast differentiation factor or RANK ligand (Buckley and Fraser Buckley, K. A. and W. D. Fraser (2002). “Receptor activator for nuclear factor kappaB ligand and osteoprotegerin: regulators of bone physiology and immune responses/potential therapeutic agents and biochemical markers.” Ann Clin Biochem 39(Pt 6): 551-6.). To establish the cell culture model of osteoclasts, bone marrow cells were freshly harvested from the tibia and femur bones of mice and were seeded in 24-wells plates containing DMEM medium supplemented with 20 ng/ml M-CSF and 100 ng/ml RANK ligand, which are the conditions commonly used in murine bone marrow culturing conditions (Murray, L. J., T. J. Abrams, et al. (2003). “SU11248 inhibits tumor growth and CSF-1R-dependent osteolysis in an experimental breast cancer bone metastasis model.” Clin Exp Metastasis 20(8): 757-66.). The formation of osteoclasts was monitored by TRAP staining for 9 days. […] Starting from day 5, TRAP positive staining cells were observed, and the multi-nucleated TRAP positive staining osteoclasts (with ≧3 nuclei) were clearly detected on day 7 and became most abundant by day 9.
[…]. […] […]. […] […].

[2] = test system: PTH-stimulated bone resorption in fetal rat long bones; assay: In vitro bone resorption assay (45Ca release from fetal rat long bones); format: cell-based
Protocol: Fetal rat long bones were prepared and cultured as described previously. (Feyen J H M, Cardinaux F, Gamse R, Bruns C, Azria M, and Trechsel U. N-terminal truncation of salmon calcitonin leads to calcitonin antagonist. Structure activity relationship of N-terminally truncated salmon calcitonin fragments in vitro and in vivo. Biochemistry and Biophysiology Research Communication 1992; 187:8-13.) Briefly, pregnant Sprague Dawley rats were injected subcutaneously with 200 μCi ^45Ca on day 18 of gestation. The following day, radii and ulnae were dissected free from muscle and connective tissue. The cartilaginous ends of the bones were removed and the calcified diaphyses were cultured in 0.5 mL BGJ medium supplemented with 1 mg/mL bovine serum albumin (BSA, fraction V) in 24-well tissue culture plates in a CO2 incubator at 37° C. overnight to reduce free exchangeable calcium. Next, medium was replaced and the bone explants were maintained in culture for 5 days in the presence or absence of the compounds to be tested. On day 2, a 100 μL aliquot was taken from the medium and the medium was replaced with fresh medium with or without treatments. […] The amount of radioactive calcium was determined using a Beckman liquid scintillation counter. Bone resorption was expressed as the percentage ^45Ca released by day 5 of total amount of ^45Ca originally incorporated in bone explants.

TPTX rats [3] = assay: Inhibition of PTH-induced hypercalcemia (serum calcium) in TPTX rats, oral BMS-354825; format: in vivo, rat
Protocol: Male Sprague-Dawley TPTX rats with basal serum calcium levels around 7-8 mg/dl were randomly assigned to the experimental groups. Alzet® mini-pumps containing a resorption stimulus (PTH: infusion rate of 0.3 μg/hr) were implanted subcutaneously. In brief, rats were anesthetized with isoflurane (5% of oxygen), the skin of the flank area was disinfected with a topical disinfectant. Following a small incision, a subcutaneous pouch was made with a sterile pair of blunt scissors, a mini-pump was inserted and the incision was closed with a wound clip. Upon drug administration, 500 μl of blood was sampled at the indicated time points by retro-orbital bleeding, the serum was collected and frozen at −80° C. Levels of serum calcium and drug were analyzed accordingly.
The serum levels of calcium of TPTX rats were quantitated by a photometric assay with the Roche Hitachi 917 (H9 17) automated chemistry analyzer (Indianapolis, Ind.). In this method, calcium reacts with o-cresolphthalein complexone in the presence of 8-hydroxyquinoline to form a purple chromophore. The color intensity of the purple complex is directly proportional to the calcium concentration and is measured photometrically on the analyzer. This method is capable of quantifying 0.2-18.2 mg/dL of serum calcium. For samples >18.2 mg/dL the samples must be diluted in saline and the value multiplied by the appropriate factor.
Malignancy related hypercalcemia has been strongly linked with bone resorption mediated by stimulation of native osteoclast formation and activity. […] In this model, the thyroid and parathyroid are surgically removed to induce hypocalcemia, then subsequent infusion with PTH stimulates the osteoclast-mediated calcemic response. […]. […] […]. […] […].
“Zoledronic acid versus placebo in the treatment of skeletal metastases in patients with lung cancer and other solid tumors: a phase III, double-blind, randomized trial—the Zoledronic Acid Lung Cancer and Other Solid Tumors Study Group.” J Clin Oncol 21(16): 3150-7). […] […]. […] […]. Due to the fact that osmotic pump works less efficiently after day 4, we intended not to include the data of calcium levels thereafter. […].

in vivo = conditions: Sprague-Dawley, rat, po, 30 mg/kg
Protocol: The serum levels of drug were analyzed by high performance liquid chromatography/mass spectrometry (HPLC/MS). […] After centrifugation to remove precipitated proteins, 5 μl of the supernatant was analyzed by HPLC/MS. The HPLC column was a Phenomenex Prodigy C18-ODS3 column (2 mm×50 mm, […]) maintained at 60° C. with a flow rate of 0.5 ml/min. […] The HPLC was interfaced to a Finnigan LCQ Advantage ion-trap mass spectrometer operated in the positive ion electrospray and full MS/MS mode. […] The limit of quantitation (LOQ) for the purposes of this assay was 0.004 μM. Quality control (QC) samples at two levels in the range of the standard curve were used to accept individual analytical sets. [drawing 3]
PK data analysis was performed by noncompartmental method using Kinetica (v4.0.2, InnaPhase Corporation, Philadelphia, Pa.). The maximum plasma concentration (Cmax) and the time reaching Cmax (Tmax) were determined by visually inspecting the profiles of plasma level of drug vs. time. […] The area under the plasma drug concentration curve (AUC) was estimated by the trapezoidal rule.

TPTX rats [4] = assay: Serum calcium in thyro-parathyroidectomized rats, IP dosing; format: in vivo, rat
Protocol: Thyro-parathyroidectomy (TPTX) surgery was performed on male Sprague-Dawley rats (200 gram body weight) as described previously.4 Thyro-parathyroidectomized (TPTX) rats with serum calcium values of 5-8 mg/dl were used for the study (normal reference range is 10-12 mg/dl). On the day of the study (48 hours post-surgery), blood was collected from the tail vein under isoflurane anesthesia, and Alzet mini-pumps (delivering 1 μl/hr) containing 0.3 μg/ml of parathyroid hormone (PTH) were implanted subcutaneously. […] Blood was collected at 3, 6 & 24 hours after dosing and analyzed for serum calcium levels.

[5] = test system: fetal rat long bone culture; conditions: Missbach et al. 1999; cited from earlier work
ovariectomized rats = conditions: Missbach et al. 1999; cited from earlier work
osteoclasts = conditions: cell culture; Murray et al. 2003; cited from earlier work
bone resorption = conditions: Murray et al. 2003; cited from earlier work

## Cc1nc(Nc2ncc(C(=O)Nc3c(C)cccc3Cl)s2)cc(N2CCN(CCO)CC2)n1 [BMS-354825, N-(2-chloro-6-methylphenyl)-2-((6-(4-(2-hydroxyethyl)-1-piperazinyl)-2-methyl-4-pyrimidinyl)amino)-1,3-thiazole-5-carboxamide]
[1]; DMEM with M-CSF/RANK ligand, dosed on day 5 post seeding
  formation of osteoclasts: inhibited dose dependently
[1]; Mus musculus, Osteoclast, 120 h, read-out: IC50, drug concentration required to inhibit 50% of osteoclast formation
  IC50: 4.4 nM
[1]; both culturing conditions: MDA-MB-231 condition media and DMEM with CSF/RANK ligand
  number of osteoclasts: significantly reduced
[1]; various concentrations dosed on day 5, cultured up to 9 days
  number of the TRAP positive staining osteoclasts: significantly reduced
[2]; Rattus norvegicus, PTH 10^-8 M, read-out: apparent IC50, PTH-stimulated release of 45Ca (bone resorption)
  IC50: 2 nM
[2]; at 5 nM
  PTH-stimulated bone resorption: completely blocks
TPTX rats [3]; 30 mg/kg/dose po, once daily
  inhibition of hypercalcemia compared with zometa 0.4 mg/kg/dose sc: more effective than zometa
TPTX rats [3]; 15 and 5 mg/kg/dose po, multiple treatment schedule
  inhibition of hypercalcemia compared with zometa 0.4 mg/kg/dose sc: comparable inhibitory effect
TPTX rats [3]; 30, 15, 5 mg/kg/dose po (QD×5), PTH infused 24 hr prior to treatment
  time to inhibition of serum calcium levels: ≤ 3 h
TPTX rats [3]; 30, 15 and 5 mpk po (QD×1), upon initiation of PTH infusion
  inhibition of serum calcium levels: dose dependent inhibition
TPTX rats [3]; 30 mpk (QD×1) and 15 mpk (2QD×1), orally
  inhibition of serum levels of calcium: rapidly inhibited
TPTX rats [3]; day 3 post drug administration, 30 mpk QD×1 / 15 mpk 2QD×1 po
  serum calcium levels vs control rats: significantly below those of the control rats
TPTX rats [3]; post drug administration, 15 and 30 mg/kg/dose po
  time of maximum inhibition of serum calcium levels: 4 h
In vivo
  AUC0-24 hr: 0.91 µM·h
  Cmax: 60 nM
In vivo; AUC0-24 hr
  AUC(0-t): 1.16 µM·h
TPTX rats [4]; 3 mg/kg ip, 0 Hour (before dosing)
  Serum Calcium: 6.74 ± 0.29 mg/dL
TPTX rats [4]; 3 mg/kg ip, 3 Hour
  Serum Calcium: 5.68 ± 0.26 mg/dL
TPTX rats [4]; 3 mg/kg ip, 6 Hour
  Serum Calcium: 7.94 ± 1.19 mg/dL
TPTX rats [4]; 3 mg/kg ip, 24 Hour
  Serum Calcium: 11.88 ± 0.61 mg/dL
TPTX rats [4]; 3 mg/kg ip, 3 hour time point
  significance of serum calcium effect vs vehicle: not significant
TPTX rats [4]; 10 mg/kg ip, 0 Hour (before dosing)
  Serum Calcium: 6.68 ± 0.25 mg/dL
TPTX rats [4]; 10 mg/kg ip, 3 Hour
  Serum Calcium: 5.80 ± 0.19 mg/dL
TPTX rats [4]; 10 mg/kg ip, 6 Hour
  Serum Calcium: 5.36 ± 0.12 mg/dL
TPTX rats [4]; 10 mg/kg ip, 24 Hour
  Serum Calcium: 7.70 ± 0.78 mg/dL
TPTX rats [4]; 10 mg/kg ip, after 24 hours
  serum calcium levels vs vehicle and calcitonin: significantly lower than both vehicle and calcitonin

## Salmon Calcitonin [reference compound]
TPTX rats [4]; 5 IU ip, 0 Hour (before dosing)
  Serum Calcium: 6.68 ± 0.21 mg/dL
TPTX rats [4]; 5 IU ip, 3 Hour
  Serum Calcium: 5.06 ± 0.13 mg/dL
TPTX rats [4]; 5 IU ip, 6 Hour
  Serum Calcium: 5.14 ± 0.15 mg/dL
TPTX rats [4]; 5 IU ip, 24 Hour
  Serum Calcium: 10.62 ± 0.64 mg/dL

## COc1cccc(-c2cn(-c3ccc(CCN4CCC(O)CC4)cc3)c3ncnc(N)c23)c1 [CGP77675]
[5]
  parathyroid hormone (PTH)-induced bone resorption: inhibitory potency
Ovariectomized rats
  bone resorption: inhibitory potency

## calcitonin: a drug currently being used to manage hypercalcemia clinically, used as a reference compound (CGNLSTCMLGTYTQDFNKFHTFPQTAIGVGAP; ends and bridges not checked; cysteine pairing not given here; UniProt P01258 85-116, looked up) [reference compound]
TPTX rats [3]; 5 IU/dose sc
  inhibition of serum calcium levels: rapid inhibition of serum calcium levels, but the inhibition was reversed rapidly
TPTX rats [3]; day 3, 5 IU/dose sc
  serum calcium levels vs control rats: no significant difference

## CCN(CC)CCNC(=O)c1c(C)[nH]c(/C=C2\C(=O)Nc3ccc(F)cc32)c1C [Su-11248]
osteoclasts
  formation and function of osteoclasts: inhibitory potency
Bone resorption
  bone resorption in vivo: inhibitory potency

## O=P(O)(O)C(O)(Cn1ccnc1)P(=O)(O)O [zometa, reference compound]
TPTX rats [3]; 0.4 mg/kg/dose sc (QD×5), PTH infused 24 hr prior to treatment
  onset of inhibition of serum calcium levels: did not produce any appreciable inhibition until 24 hr
